Data: patent US20220251517A1
Structures can show the parent of a compound that is named as a salt.

How the values were obtained:
[1] = tested on: cardiac microtissues (hiPSC-CMs and human cardiac fibroblasts); test: Arrhythmia induction in 3D cardiac microtissues (brightfield beat rate, optical mapping, stimulation capture); assay type: cell-based; conditions: for presence of arrhythmias at endpoint: N=3
Experimental: (§1) Tissues were allowed to compact for 7 days (Day -7 to 0) and treatment with either arrhythmogenic or control media conditions began on day 8 post-seeding (e.g. Day 0 in FIG. 1A). Arrhythmogenic media consisted of DMEM no glucose (ThermoFisher; 11966025), B-27 minus insulin supplement (1×; ThermoFisher; A1895602), HEPES (10 mM), L-carnitine (2 mM), creatine (5 mM), taurine (5 mM), MEM non-essential amino acids ([…]; ThermoFisher; 11140050), insulin-transferrin-selenium (1×; ThermoFisher; 41400045), galactose (10 mM), MBCD or MBCD-conjugated FAs as follows: hiPSC-CMs were treated with 100 μM FAs (linoleic acid 40 μM, oleic acid 40 μM, and palmitic acid 20 μM; MBCD 0.8 mM); and hESC-CMs were treated with 200 μM FAs (linoleic acid 80 μM, oleic acid 80 μM, and palmitic acid 40 μM; MBCD 1.6 mM)), glutamine (1 mM), and antibiotic-antimycotic. […] Instead, control media were supplemented with glucose (5 mM) and either FA vehicles (MBCD) at a lower dose of MBCD than the arrhythmogenic media (0.5 mM) or no MBCD (to confirm MBCD was the arrhythmogenic agent). Microtissues were treated by addition of media containing the components described above for up to 5 days and analyzed (e.g., imaging, tissue harvesting for isolation of RNA for transcriptomic analysis, fixing tissues for histopathological assessments/staining) at different time points to assess functional and transcriptomic parameters (see FIG. 1A).
During contractile force measurements, cardiac microtissues were electrically stimulated at 1 Hz and at their respective excitation threshold and videos of the 1:30 PDMS rods were taken for 15 seconds under 10× magnification with a Leica EC3 camera. For tissue compaction and spontaneous beating rate measurements, the tissues were not stimulated.
To assess the range of stimulation capture, microtissues were stimulated by a silver electrode at 3 Hz and 6V, and the distance from the electrode to which point the cardiac microtissue was not electrically captured by the delivered electrical impulse was marked as the range of stimulation capture (mm) (e.g., see FIG. 1H).

[2] = tested on: 5-day arrhythmic cardiac microtissues; test: Arrhythmia reversal by removal of MBCD from media; assay type: cell-based, human; conditions: 5 days arrhythmogenic media
Experimental: as §1
Finally, it was reasoned that if MBCD was causing arrhythmias, removal of MBCD from culture media could reverse arrhythmias. To test this, 5-day arrhythmogenic tissues were cultured in control media for 5 additional days (see FIG. 6A). […] Arrhythmic tissues progressively regained synchronicity, allowing for the measurement of beat frequency.

[3] = tested on: arrhythmic cardiac microtissues (hiPSC-CM, cell line 1); test: Anti-arrhythmic drug testing on arrhythmic cardiac microtissues (optical mapping)
[4] = isoproterenol added to lidocaine-treated arrhythmic tissues
[5] = arrhythmic tissues, acute treatment 30 min, lidocaine 17.5 μg/mL

methyl-β-cyclodextrin [MBCD]
development of arrhythmias ([1]; low MBCD concentration 0.5 mM (control media), 5 days): did not develop arrhythmias
presence of arrhythmias at endpoint ([1]; media containing both MBCD and glucose (5mM), 5 days): arrhythmias were also induced
Cx43 and N-Cad expression and co-localization after arrhythmia reversal ([2]; then 5 days control media): significant increase
passive force after arrhythmia reversal ([2]; then 5 days control media): without significant changes
synchronicity after removal of MBCD ([2]; then 5 days control media): started beating synchronously
contractile force of reverted tissues relative to age matched control tissues ([2]; then control media, plateau, p<0.0001): ~50%

O=C[C@H](O)[C@@H](O)[C@@H](O)[C@H](O)CO [galactose]
presence of arrhythmias at endpoint ([1]; media containing only galactose (10 mM), no MBCD): did not become arrhythmic

CC(C)NCC(O)c1ccc(O)c(O)c1 (stereo not drawn) [isoproterenol]
conduction velocity [3, 4]: increase
cycle length [3, 4]: reduction
mean wavefronts per frame [3, 4]: no change

CCCCc1oc2ccccc2c1C(=O)c1cc(I)c(OCCN(CC)CC)c(I)c1 [amiodarone, Amiodarone]
electrophysiological changes (wavefronts per frame, conduction velocity, cycle length) ([3]; arrhythmic tissues, acute treatment 30 min, flecainide 10 μM, propranolol 4 μg/mL, amiodarone 30 μg/mL): did not produce any significant electrophysiological changes

CCN(CC)CC(=O)Nc1c(C)cccc1C [lidocaine, Lidocaine HCl]
conduction velocity [3, 5]: significantly decreased
cycle length duration [3, 5]: increasing
mean number of wavefronts per frame [3, 5]: significant reduction

BSA-ligated fatty acids: BSA-ligated fatty acids used in place of MBCD-conjugated fatty acids
induction of arrhythmogenesis ([1]; BSA-ligated fatty acids instead of MBCD-conjugated fatty acids): no effect
